# ChEMBL document CHEMBL1201862, “PubChem BioAssay data set” (2004)
#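 Assay format: 96-well plates, 48-hour exposure. GI50 marks 50% less growth.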 The source made the active and inactive calls. No stated cut-off is given here; in the data, active = GI50 up to about 1.1 µM and inactive = higher.
# What was measured:
# Experiment in all cases: DTP human tumour cell line panel, 48 h
# SN12C = system: SN12C
# SNB-75 = system: SNB-75
# SR = system: SR
# SW-620 = system: SW-620
# HCT-116 = system: HCT-116
# OVCAR-3 = system: OVCAR-3
# SF-268 = system: SF-268
# OVCAR-8 = system: OVCAR-8
# KM12 = system: KM12
# NCI-H460 = system: NCI-H460
# K562 = system: K562
# RXF 393 = system: RXF 393
# 786-0 = system: 786-0
# SK-MEL-5 = system: SK-MEL-5
# LOX IMVI = system: LOX IMVI
# SF-539 = system: SF-539
# A549 = system: A549
# NCI-H522 = system: NCI-H522
# PC-3 = system: PC-3
SMILES,GI50 (SN12C),GI50 (SNB-75),GI50 (SR),GI50 (SW-620),GI50 (HCT-116),GI50 (OVCAR-3),GI50 (SF-268),GI50 (OVCAR-8),GI50 (KM12),GI50 (NCI-H460),GI50 (K562),GI50 (RXF 393),GI50 (786-0),GI50 (SK-MEL-5),GI50 (LOX IMVI),GI50 (SF-539),GI50 (A549),GI50 (NCI-H522),GI50 (PC-3)
COc1cc2c(OC)cc1CSCc1sc(C)c(c1Br)CSC2,> 100 µM (inactive),74.1 µM (inactive),4.16 µM (inactive),> 100 µM (inactive),> 100 µM (inactive),> 100 µM (inactive),> 100 µM (inactive),> 100 µM (inactive),> 100 µM (inactive),> 100 µM (inactive),> 100 µM (inactive),> 100 µM (inactive),> 100 µM (inactive),> 100 µM (inactive),> 100 µM (inactive),> 100 µM (inactive),> 100 µM (inactive),–,–
NCCCNCCSSCCCCS(=O)O,39.6 µM (inactive),30.8 µM (inactive),3.37 µM (inactive),30.4 µM (inactive),25.7 µM (inactive),19.9 µM (inactive),18.1 µM (inactive),38.6 µM (inactive),> 10 µM (inactive),65.9 µM (inactive),24.3 µM (inactive),30.3 µM (inactive),> 100 µM (inactive),17.2 µM (inactive),8.32 µM (inactive),80 µM (inactive),59.8 µM (inactive),13.8 µM (inactive),–
Cn1cc(C(=O)NCCC(=N)N)cc1NC(=O)C1=[N+](C)C=C(NC(=O)c2cccc(C(=O)NC3=CC(C(=O)Nc4cc(C(=O)NCCC(=N)N)cn4C)=[N+](C)C3)c2)C1,88.5 µM (inactive),> 100 µM (inactive),> 100 µM (inactive),> 100 µM (inactive),–,> 100 µM (inactive),> 100 µM (inactive),> 100 µM (inactive),36.3 µM (inactive),> 100 µM (inactive),83.8 µM (inactive),35.3 µM (inactive),37.8 µM (inactive),42.3 µM (inactive),> 100 µM (inactive),41.2 µM (inactive),> 100 µM (inactive),> 100 µM (inactive),–
CC(=O)Nc1ccc(-c2nnc(SCC(=O)Nc3ccc(C)cc3)o2)cc1,15.8 µM (inactive),16.4 µM (inactive),28 µM (inactive),19.1 µM (inactive),15.7 µM (inactive),22.4 µM (inactive),20.1 µM (inactive),27.7 µM (inactive),19.1 µM (inactive),23.2 µM (inactive),42.4 µM (inactive),19 µM (inactive),17 µM (inactive),14.7 µM (inactive),15.2 µM (inactive),13.5 µM (inactive),40.3 µM (inactive),18.2 µM (inactive),–
CCCOC(=O)C1C(c2ccc(OC)cc2)NC(c2ccc(OC)cc2)C(C(=O)OCCC)S1(=O)=O (centres undefined),> 10 µM (inactive),> 10 µM (inactive),> 100 µM (inactive),> 10 µM (inactive),> 10 µM (inactive),> 10 µM (inactive),> 10 µM (inactive),> 10 µM (inactive),> 10 µM (inactive),> 10 µM (inactive),> 10 µM (inactive),> 10 µM (inactive),> 10 µM (inactive),> 10 µM (inactive),> 10 µM (inactive),> 10 µM (inactive),> 10 µM (inactive),> 10 µM (inactive),–
COC(=O)c1cc(C(=O)OC)cc(-c2ccc3c(c2)-c2nc4c(c(-c5ccc(OC)cc5)c2CC3)CCc2ccc(-c3cc(C(=O)OC)cc(C(=O)OC)c3)cc2-4)c1,> 100 µM (inactive),> 100 µM (inactive),–,–,> 100 µM (inactive),> 100 µM (inactive),> 100 µM (inactive),–,> 100 µM (inactive),> 100 µM (inactive),0.061 µM (active),–,> 100 µM (inactive),> 100 µM (inactive),–,–,> 100 µM (inactive),> 100 µM (inactive),> 100 µM (inactive)
CC(C(=O)N1C(=O)N(C(=O)C(C)C(O)c2ccccc2)C2CCCCC21)C(O)c1ccccc1 (centres undefined),> 100 µM (inactive),–,28.6 µM (inactive),> 100 µM (inactive),> 100 µM (inactive),78.2 µM (inactive),> 100 µM (inactive),88.3 µM (inactive),37.1 µM (inactive),49.1 µM (inactive),> 10 µM (inactive),66.1 µM (inactive),> 100 µM (inactive),30.1 µM (inactive),79.4 µM (inactive),–,44.3 µM (inactive),46.8 µM (inactive),–
CC(=O)OC1COC(N2CCc3cc([N+](=O)[O-])ccc32)C(OC(C)=O)C1OC(C)=O (centres undefined),–,> 100 µM (inactive),> 100 µM (inactive),> 100 µM (inactive),–,> 100 µM (inactive),> 100 µM (inactive),> 100 µM (inactive),> 100 µM (inactive),> 100 µM (inactive),> 100 µM (inactive),> 100 µM (inactive),> 100 µM (inactive),> 100 µM (inactive),> 100 µM (inactive),> 100 µM (inactive),> 100 µM (inactive),> 100 µM (inactive),–
Cc1cc(NCCCCCCCNc2cc(C)nc3cc(N)ccc23)c2ccc(N)cc2n1,10.5 µM (inactive),25.2 µM (inactive),18.6 µM (inactive),–,27.6 µM (inactive),44 µM (inactive),60.3 µM (inactive),36.3 µM (inactive),20.7 µM (inactive),27.2 µM (inactive),1.37 µM (inactive),79.3 µM (inactive),> 100 µM (inactive),22.2 µM (inactive),21.6 µM (inactive),27 µM (inactive),29.9 µM (inactive),13.7 µM (inactive),–
CC(C)c1cccc(C(C)C)c1NC(=O)C(=O)CC(=O)CC(c1ccccc1)c1c(O)oc2ccccc2c1=O (centres undefined),> 100 µM (inactive),–,> 100 µM (inactive),> 100 µM (inactive),> 100 µM (inactive),> 100 µM (inactive),> 100 µM (inactive),> 100 µM (inactive),> 100 µM (inactive),> 100 µM (inactive),> 100 µM (inactive),> 100 µM (inactive),> 100 µM (inactive),> 100 µM (inactive),–,> 100 µM (inactive),> 100 µM (inactive),> 100 µM (inactive),–
O=c1nc2occc2cn1C1CC(O)C(CO)O1 (centres undefined),> 100 µM (inactive),> 100 µM (inactive),> 100 µM (inactive),> 100 µM (inactive),> 100 µM (inactive),> 100 µM (inactive),> 100 µM (inactive),> 100 µM (inactive),> 100 µM (inactive),> 100 µM (inactive),> 100 µM (inactive),> 100 µM (inactive),> 100 µM (inactive),> 100 µM (inactive),> 100 µM (inactive),> 100 µM (inactive),> 100 µM (inactive),–,–
CCCCN[C@H]1C2C3CC4C5CC(C42)C1(C)C53 (some centres undefined),> 100 µM (inactive),> 100 µM (inactive),> 100 µM (inactive),> 100 µM (inactive),> 100 µM (inactive),> 100 µM (inactive),> 100 µM (inactive),–,> 100 µM (inactive),> 100 µM (inactive),> 100 µM (inactive),> 100 µM (inactive),> 100 µM (inactive),> 100 µM (inactive),> 100 µM (inactive),> 100 µM (inactive),> 100 µM (inactive),> 100 µM (inactive),–
Cc1cc(C)c(N)c(C)c1N,> 100 µM (inactive),–,> 100 µM (inactive),> 100 µM (inactive),> 100 µM (inactive),> 100 µM (inactive),> 100 µM (inactive),> 100 µM (inactive),> 100 µM (inactive),> 100 µM (inactive),> 100 µM (inactive),> 100 µM (inactive),> 100 µM (inactive),> 100 µM (inactive),> 100 µM (inactive),> 100 µM (inactive),> 100 µM (inactive),> 100 µM (inactive),–
O=C1NC(=S)NC(=O)C1=Cc1cc2c(cc1[N+](=O)[O-])OCO2,74.6 µM (inactive),> 100 µM (inactive),35.9 µM (inactive),39.1 µM (inactive),54.1 µM (inactive),> 100 µM (inactive),> 100 µM (inactive),73.3 µM (inactive),40.6 µM (inactive),> 100 µM (inactive),41.8 µM (inactive),> 100 µM (inactive),62.8 µM (inactive),> 100 µM (inactive),–,83.2 µM (inactive),> 100 µM (inactive),> 100 µM (inactive),–
N#CC(C(=O)CCC(=O)Nc1cccc(Cl)c1)c1ccccc1 (centres undefined),> 100 µM (inactive),> 100 µM (inactive),> 100 µM (inactive),–,> 100 µM (inactive),> 100 µM (inactive),> 100 µM (inactive),> 100 µM (inactive),> 100 µM (inactive),> 100 µM (inactive),> 100 µM (inactive),> 100 µM (inactive),> 100 µM (inactive),> 100 µM (inactive),> 100 µM (inactive),> 100 µM (inactive),> 100 µM (inactive),> 100 µM (inactive),–
COc1ccc(CCN2CCC(C#N)(c3ccc(OC)c(OC)c3)CC2)cc1OC,> 100 µM (inactive),30.5 µM (inactive),> 100 µM (inactive),> 100 µM (inactive),> 100 µM (inactive),> 100 µM (inactive),> 100 µM (inactive),> 100 µM (inactive),> 100 µM (inactive),> 100 µM (inactive),> 100 µM (inactive),49.1 µM (inactive),> 100 µM (inactive),> 100 µM (inactive),> 100 µM (inactive),> 100 µM (inactive),> 100 µM (inactive),84.9 µM (inactive),–
